Laboratory results as given in patent US8980226B2, “Aerosolized fosfomycin/aminoglycoside combination for the treatment of bacterial respiratory infections” (Gilead Sciences, Inc., priority 2004, dated 2015).
≈ marks a conversion by molar mass, not a printed value. Read-outs that look alike come from different tables or passages of the source.

Legend:
E. coli ATCC 25922 = assay: MBC/MIC, broth microdilution; assay type: cell-based
Procedure: (§1) “Minimal bactericidal concentration (MBC)” means the lowest concentration of antibiotic that results in ≧3 Log10 of bacterial killing.
(§2) The MICs of amikacin, arbekacin, dibekacin, gentamicin, kanamycin, netilimicin, neomycin, streptomycin, and tobramycin alone were determined for P. aeruginosa ATCC 27853 by the broth-microdilution method according to NCCLS standards (NCCLS, 2003). E. coli ATCC 25922 and S. aureus ATCC 29213 were used as quality control stains. Bacterial strains were streaked onto blood agar plates, and incubated at 35° C. for 18 hours. Two to three bacterial colonies from the overnight cultures were inoculated into 3 mL of sterile normal saline, vortexed briefly, and adjusted to a 0.5 McFarland standard (NCCLS, 2003). The bacterial suspension was diluted 1:100 in cation-adjusted Mueller-Hinton broth (hereafter referred to as CAMHB). Fifty microliters of bacterial inoculum (approximately 2×10^5 CFU/mL) was pipeted into individual wells of 96-well plates containing 50 μl of CAMHB (Remel, Lenexa, Kanas) supplemented with 2-fold dilutions of antibiotics ranging in concentration from 0.125 μg/mL to 128 μg/mL. The MIC was defined as the lowest concentration of antibiotic (s) that prevented visible growth after incubation at 35° C. for 18-24 hours.
(§3) The MBCs of fosfomycin, amikacin, arbekacin, dibikacin, gentamicin, kanamycin B, netilimicin, neomycin, streptomycin, or tobramycin alone for P. aeruginosa ATCC 27853, E. coli ATCC 25922, and S. aureus ATCC 29213 were determined by the broth microdilution method according to NCCLS standards (NCCLS, 1999). Bacterial strains were streaked onto blood agar plates and incubated at 35° C. for 18-24 hours. Two to three bacterial colonies from the overnight cultures were inoculated into 3 mL of sterile normal saline, vortexed briefly, and adjusted to a 0.5 McFarland standard (NCCLS, 2003). Fifty microliters of bacterial inoculum (approximately 2×10^5 CFU/mL) was pipeted into individual wells of 96-well plates containing 50 μl of CAMHB (Remel, Lenexa, Kanas) supplemented with 2-fold dilutions of antibiotics ranging in concentration from 0.125 μg/mL to 128 μg/mL. Plates were incubated at 35° C. for 18-24 hours and MIC determined as described in Example 5, Method C. The contents of wells showing no growth (MIC and above) were mixed with a pipetor and duplicate 10 μl samples spread onto blood agar plates. Culture plates were incubated at 35° C. for 18-24 hours and the number of bacterial colonies on each plate enumerated manually. Rejection values were determined by NCCLS methods which considers the final inoculum size, single or double sampling, pipetting error, and the Poisson distribution of sample responses (NCCLS, 1999). […] The MBC was defined as the ≧3 Log10 decrease in CFU/mL of the original inoculum as described by NCCLS standards (NCCLS, 1999). The MBC/MIC ratios were calculated by dividing the MBC by the MIC.

P. aeruginosa ATCC 27853 [1] = assay: MBC/MIC, broth microdilution; assay type: cell-based
Procedure: as §1, §2, §3

S. aureus ATCC 29213 = assay: MBC/MIC, broth microdilution; assay type: cell-based
Procedure: as §1, §2, §3

P. aeruginosa ATCC 27853 [2] = assay: MIC for P. aeruginosa ATCC 27853; assay type: cell-based; conditions: Pseudomonas aeruginosa, ATCC27853
Procedure: E. coli ATCC 25922 and S. aureus ATCC 29213 were used as quality control stains. Bacterial strains were streaked onto blood agar plates, and incubated at 35° C. for 18 hours. Two to three bacterial colonies from the overnight cultures were inoculated into 3 mL of sterile normal saline, vortexed briefly, and adjusted to a 0.5 McFarland standard (NCCLS, 2003). The bacterial suspension was diluted 1:100 in cation-adjusted Mueller-Hinton broth (hereafter referred to as CAMHB). […] The MIC was defined as the lowest concentration of antibiotic (s) that prevented visible growth after incubation at 35° C. for 18-24 hours. […] Two to three bacterial colonies were inoculated into 10 mL CAMHB and incubated at 35° C. in a shaking water bath (250 rpm) for 18-24 hours. […] The resulting culture was adjusted to a 0.5 McFarland standard (NCCLS, 2003). […] Ten milliliter aliquots were then pipeted into 50 mL conical tubes. […] The killing activity of fosfomycin plus amikacin, arbekacin, dibikacin, gentamicin, kanamycin, […], neomycin, streptomycin, or tobramycin were also compared to the killing activity of their individual components alone. […] A no drug control was run in each experiment. Cultures were incubated with antibiotic at 35° C. in a shaking (250 rpm) water bath for 24 hours. […] Culture plates were incubated at 35° C. for 18-24 hours and the number of colonies enumerated manually. […]

[3] = in vivo; cited from earlier work
[4] = system: susceptible P. aeruginosa; conditions: typical values, literature; cited from earlier work
[5] = cited from earlier work
[6] = in vivo; cited from earlier work; remark: listed apart in the source

SMILES	MBC/MIC E. coli (E. coli ATCC 25922)	MBC/MIC P. aeruginosa (P. aeruginosa ATCC 27853 [1])	MBC/MIC P. aeruginosa (P. aeruginosa ATCC 27853 [1]; listed as fosfomycin)	MBC/MIC S. aureus (S. aureus ATCC 29213)	MIC (P. aeruginosa ATCC 27853 [2]) [µg/mL]	concentrations in normal lung [3] [µg/mL]	peak serum concentrations [3] [µg/mL]	time of peak serum concentrations [3] [h]	MBC/MIC Aminoglycoside (P. aeruginosa ATCC 27853 [1]; aminoglycoside alone)	MICs of susceptible P. aeruginosa [4]	sputum levels ([5]; aerosol administration) [µg/mL]	oral absorption ([5]; in vivo, po)	plasma half-life ([5]; parenteral administration) [h]	prevalence of nephrotoxicity [6]
C[C@@H]1O[C@@H]1P(=O)(O)O [Fosfomycin]	8	≧8	≥ 8	1	4 (≈ 29 µM)	1 to 13	25 to 95	1 to 2	–	–	–	–	–	–
NC[C@H]1O[C@H](O[C@H]2[C@H](O)[C@@H](O[C@H]3O[C@H](CO)[C@@H](O)[C@H](N)[C@H]3O)[C@H](N)C[C@@H]2N)[C@H](N)C[C@@H]1O [Tobramycin]	1	1	–	8	–	–	–	–	1	less than 2 μg/mL	≥ 1000	poorly absorbed orally	1 to 2	31-42%
